From patent US11001591B2, “TRAF 6 inhibitors” (HELMHOLTZ ZENTRUM MUENCHEN—DEUTSCHES FORSCHUNGSZENTRUM FÜR …, priority 2016, dated 2021)
Entries after “also recorded” stand apart in the source; their conditions may differ.

Legend:
[1] = test system: HBL1 (ABC-DLBCL-MYD88 L265P); test: Cell viability in DLBCL, HBL1; format: cell-based; settings: 30 μM added at day 0, 4 and 8; 9 days
Protocol: To determine the effects of C25-140 on MYD88-dependent ABC-DLBCL, we chose the HBL1 (ABC-DLBCL-MYD88 L265P), U2932 (ABC DLBCL-MYD88 wt) and BJAB (GCB DLBCL) cell lines. 1×10^6 cells of each cell line was seeded in 5 ml and treated with 30 μM compound C25-140 (compound 3) or DMSO. The entire experiment was carried out for 9 days. Every day 500 μl were taken and viable cell number was acquired using the ViCEII cell counter (Beckmann Coulter). At days 4 and 8 of the experiment the volume was again adjusted to 5 ml and samples were supplemented with 30 μM compound C25-140 or DMSO. This process was necessary to ensure linear proliferation of DMSO treated cells. All curves of C25-140 treated samples were referred to the corresponding DMSO treated controls.

plasma protein = test: Plasma protein binding; format: in vitro ADME
Protocol: All ADME (plasma stability, plasma protein binding, microsomal stability, Log D, Caco-2 assay, CYP450 inhibition and hERG predictor assay) as well as pharmacokinetic studies (Tmax, Cmax, AUC0-240 min, Mean Residence Time, Elimination half life, Elimination rate constant, Volume of Distribution and Clearance) of C25-140 (compound 3) were conducted by Bienta Enamine Biology Services of Bienta/Enamine Ltd.

[2] = test system: IMQ-induced psoriasis, Balb/C mice; test: Imiquimod (IMQ)-induced psoriasis mouse model; format: in vivo
Protocol: To evaluate the anti-inflammatory activity of the compound C25-140 (compound 3), an Imiquimod (IMQ)-induced psoriasis mouse model was conducted by Washington Biotechnology, Inc. (Baltimore, USA). Per group, 8 male Balb/C mice were shaved in the back (1.5 cm×2 cm) and IMQ and C25-140 were applied topically to the shaved back and the right ear daily for 6 days. Thereby, C25-140 was dissolved in acetone and applied at a total dosage of 500 μg per day (2×250 μg). Mice were monitored and daily scores (erythema, scaling and thickness of back skin) were independently collected on a scale from 0 to 4:0=none; 1=slight; 2=moderate; 3=marked and 4=very marked. Ear thickness was measured by electronic calipers as an indicator of edema. IL-17 cytokine secretion of the right ear tissue was measured by ELISA.

[3] = test system: Diet-Induced-Obesity (DIO) mice; test: Diet-Induced-Obesity (DIO) mouse study; format: in vivo; settings: 7.4 mg/kg IP once daily
Protocol: For MEF cells, 1.2×10^5 cells per sample were seeded, treated with compound for 6 hours and stimulated with either IL-1β or TNFα for 60 minutes. Jurkat T-cells and primary mouse CD4^+ T-cells were seeded at 2×10^5 cells per sample, also treated with compound for 6 hours and stimulated with PMA/lonomycin for 3 hours. RNA was isolated according to the manufacturer's protocol of the Qiagen RNeasy Kit (MEF cells) or the STRATEC INVITRAP® SPIN UNIVERSAL RNA MINI KIT (Jurkat T-cells). The isolation of mRNA from […] white adipose tissue from DIO mice was performed using TRIzol® Reagent according to manufacturer's instruction. To clear the isolated RNA from genomic DNA, samples (up to 5 μg RNA) were treated with RQ1 RNase-Free DNaseI (Promega) as described in the technical manual. For the reverse transcription of RNA into cDNA, the DNaseI digested RNA samples were processed using the SuperScript III First Strand cDNA Synthesis System (Invitrogen/ThermoFisher Scientific) following the manufacturer's protocol. Thereby, random hexamers provided with the kit were used for reverse transcription. cDNA samples were stored at −20° C. For quantification of cDNA in the samples, the LightCylcer480 (Roche) and the KAPA SYBR FAST qPCR Kit were used. For relative quantification, the ΔΔCp method first described by Pfaffl (Pfaffl, M. W., A new mathematical model for relative quantification in real-time RT-PCR. Nucleic Acids Res, 2001. 29(9): p. e45) was applied. The following primer were used for qRT-PCR:
Mice were fed a high-fat-diet until they reached a body weight of at least 40 g and developed […]. These mice were separated in control group and a group for C25-140 (compound 3) injection. Mice were treated every day with 14 μmol/kg (=7.4 mg/kg) C25-140 intraperitoneally for a period of 20 days. Thereby, C25-140 was dissolved in 2.9% DMSO, 1.5% Tween-80 and 1×PBS. Every day before injection, the body weight and food intake were measured. […]

TRAF6-Ubc13 binding = target: T1, TRAF6-Ubc13 binding (Homo sapiens, UniProt Q9Y4K3); test: Co-immunoprecipitation of HA-TRAF6 and endogenous Ubc13 in HEK 293T cells; format: cell-based; settings: listed as C25-140
T1 construct: RING-Zincfinger1 (RZ1) domain (residues 50-159) of TRAF6 wildtype; expressed in transfected cells; host or cells: HEK 293T
T1 sequence (Q9Y4K3 50-159): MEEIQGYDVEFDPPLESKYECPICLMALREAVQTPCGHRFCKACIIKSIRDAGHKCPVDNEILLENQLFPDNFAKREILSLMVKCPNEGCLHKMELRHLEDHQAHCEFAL
Protocol: To study the interaction of TRAF6 and Ubc13 in cells, 1×10^6 293T cells were seeded and after 18 hours cells were transfected with lpg pEF-HA empty or pEF-HA-TRAF6 RZ1 plasmid using the X-tremeGENE HP DNA transfection reagent (Roche). 6 hours upon transfection, cells were treated with compound or DMSO. After 42 hours further incubation, cells were harvested in Co-IP lysis buffer and HA-TRAF6 was immunoprecipitated with anti-HA affinity matrix (Roche). Binding of Ubc13 to TRAF6 was examined in Western Blot analysis.

ITCH = target: T2, ITCH (Homo sapiens, UniProt Q96J02); test: In vitro ubiquitination assay, ITCH; format: biochemical; settings: HECT E3 ligase
T2 construct: purchased Boston Biochem one of K-102, K-260, K-200B, K-220, K-240, K-270
Protocol: For analysis of clAP1, MDM2, TRIM63, RNF4, ITCH and E6AP mediated poly-ubiquitination, the respective ubiquitin ligase kit from Boston Biochem (K-102, K-260, K-200B, K-220, K-240 and K-270) was used. Here, reaction buffer, E1, E2 and E3 enzyme (and p53 substrate in case of MDM2) were mixed and pre-incubated with compound or DMSO for 5 minutes at room temperature before adding Mg^2+-ATP and mono-ubiquitin for reaction start. Ubiquitination was visualized by Western Blot analyses.

T2 sequence (Q96J02 whole entry): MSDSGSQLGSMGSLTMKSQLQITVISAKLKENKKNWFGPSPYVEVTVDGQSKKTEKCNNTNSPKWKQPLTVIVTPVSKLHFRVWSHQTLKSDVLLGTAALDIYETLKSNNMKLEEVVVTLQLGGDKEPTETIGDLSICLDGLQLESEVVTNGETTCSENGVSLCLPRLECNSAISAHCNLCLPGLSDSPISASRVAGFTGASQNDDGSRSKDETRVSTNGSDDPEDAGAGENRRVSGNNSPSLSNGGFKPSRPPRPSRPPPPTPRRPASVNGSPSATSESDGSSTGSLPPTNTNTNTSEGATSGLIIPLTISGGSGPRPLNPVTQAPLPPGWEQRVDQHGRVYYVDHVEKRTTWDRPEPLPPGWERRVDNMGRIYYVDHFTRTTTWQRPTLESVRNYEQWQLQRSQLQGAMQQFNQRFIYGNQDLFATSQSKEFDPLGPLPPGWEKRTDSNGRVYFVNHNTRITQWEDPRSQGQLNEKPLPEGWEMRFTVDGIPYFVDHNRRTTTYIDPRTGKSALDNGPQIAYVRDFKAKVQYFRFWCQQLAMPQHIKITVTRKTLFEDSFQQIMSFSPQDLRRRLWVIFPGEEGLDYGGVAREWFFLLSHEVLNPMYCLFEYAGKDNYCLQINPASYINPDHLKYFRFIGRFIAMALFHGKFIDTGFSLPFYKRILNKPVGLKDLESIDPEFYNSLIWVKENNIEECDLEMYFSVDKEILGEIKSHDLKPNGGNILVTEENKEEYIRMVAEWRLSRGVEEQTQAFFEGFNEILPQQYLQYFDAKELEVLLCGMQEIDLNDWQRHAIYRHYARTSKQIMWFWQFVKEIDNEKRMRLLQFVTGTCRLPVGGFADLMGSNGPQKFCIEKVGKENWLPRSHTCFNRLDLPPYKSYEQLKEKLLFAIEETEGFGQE

- food intake ([3]; 20 days, vs vehicle): did not differ
- ITCH auto-ubiquitination (ITCH): not affected
SMILES: Cc1nn(-c2ccc3nnc(C)n3n2)c(C)c1CCC(=O)N1CCC(Cc2ccccc2)CC1 [Compound 3, 1-(4-benzylpiperidin-1-yl)-3-(3,5-dimethyl-1-(3-methyl-[1,2,4]triazolo[4,3-b]pyridazin-6-yl)-1H-pyrazol-4-yl)propan-1-one]
- viability (cell count) [1]: significantly reduced
- plasma protein binding (plasma protein): decent good plasma protein binding capacity
- IL-17 in right ear tissue ([2]; day 6, ELISA): decreased
- cumulative score (thickness, scaling, erythema of the back) ([2]; topical twice daily, 6 days): reduces
- ear thickness ([2]; topical twice daily, 6 days): significantly reduced
- scaling, erythema and ear thickness scores ([2]; topical twice daily, 6 days): improvement of the disease symptoms
- thickness score of the back ([2]; topical twice daily, 6 days): significantly reduce
- body weight gain under high-fat-diet ([3]; 20 days): hardly increased body weight
- IL-1β and VCAM mRNA in adipose tissue ([3]; day 20): significantly reduced
- interaction of endogenous Ubc13 with ectopically expressed HA-TRAF6 (TRAF6-Ubc13 binding): reduced interaction; also recorded: most active analogs
